{"source": "patent US20150119698A1", "about": "“Compositions Comprising Near-Infrared Fluorescent Particles And Uses Thereof For Imaging Activated Immune Cells In the CNS” (priority 2012, published 2015)", "key": {"[1]": {"system": "brain of mice following infection with Plasmodium berghei ANKA or naïve mice", "assay": "Probe distribution into the CNS in experimental cerebral malaria, images 4 hours post injection", "assay_type": "in vivo", "conditions": "tail vein injection"}, "[2]": {"system": "brains of mice 6 days post infection with P. berghei ANKA versus naïve mice", "conditions": "mouse, in vivo", "protocol": "In an additional experiment, C57 black mice were infected with 80,000 parasites (P. berghei ANKA). […] Mice were scanned by IVIS™ optical imager. The measurements were performed for 5 hours. For each mouse, the intensity of brain ICG emission was compared to that of the foot. […] Five hours post injection mice were sacrificed and brains were scanned by TYPHOON™ imager."}}, "data": [{"smiles": "CC1(C)C(/C=C/C=C/C=C/C=C2\\N(CCCCS(=O)(=O)O)c3ccc4ccccc4c3C2(C)C)=[N+](CCCCS(=O)(=O)[O-])c2ccc3ccccc3c21", "note": "[free ICG, Indocyanine green]", "values": [{"measurement": "uptake into the brain of diseased mice", "setting": "[1]; mice infected with Plasmodium berghei ANKA", "result": "but not free ICG, were preferentially uptaken into the brain"}, {"measurement": "fluorescence in the brain of naïve mice", "setting": "[1]; naïve mice", "result": "no significant fluorescence"}, {"measurement": "brain emission, infected versus naïve mice (statistical difference)", "setting": "[2]", "result": "not statistically different"}]}]}
